Laboratory results as given in patent publication US20240317712A1, “[…] DERIVATIVES AS INHIBITORS OF […]-PEPTIDE CYCLOTRANSFERASE AND […]-PEPTIDE CYCLOTRANSFERASE LIKE PROTEIN” (Boehringer Ingelheim International GmbH, priority 2023, published 2024).

Columns and labels:
QPCTL = target: T1, QPCTL (Homo sapiens, UniProt Q9NXS2); experiment: Assay A: biochemical QPCTL activity assay (MALDI-TOF MS, CD47 peptide substrate); conditions: 0.5 nM enzyme, 10 μM CD47 peptide substrate; read-out: Inhibition of QPCTL: IC50
T1 construct: made in house
T1 sequence (Q9NXS2 whole entry): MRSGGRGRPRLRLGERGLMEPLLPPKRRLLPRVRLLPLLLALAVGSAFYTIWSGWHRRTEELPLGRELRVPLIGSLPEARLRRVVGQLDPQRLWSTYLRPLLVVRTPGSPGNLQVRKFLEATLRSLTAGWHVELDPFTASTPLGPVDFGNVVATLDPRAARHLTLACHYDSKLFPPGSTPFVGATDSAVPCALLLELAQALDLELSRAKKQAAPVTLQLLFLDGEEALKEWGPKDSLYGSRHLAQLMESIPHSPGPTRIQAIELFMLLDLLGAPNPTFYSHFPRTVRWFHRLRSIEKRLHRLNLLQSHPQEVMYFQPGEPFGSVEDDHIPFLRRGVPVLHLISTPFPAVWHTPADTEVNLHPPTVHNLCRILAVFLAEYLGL
Protocol: (§1) QPCT or QPCTL dependent conversion of N-terminal glutamine to pyroglutamate of CD47 was monitored via MALDI-TOF MS. Test compounds were dissolved in 100% DMSO and serially diluted into clear 1,536-well microtiter plates. Enzymatic reactions were set up in assay buffer containing 20 mM Tris pH 7.5, 0.1 mM TCEP, 0.01% BSA, and 0.001% Tween20. […] The plates were incubated for 10 min in a humidified incubator at 24° C. Subsequently, 2.5 µL of CD47 peptide substrate surrogate (^19[…]^33) was added to each well (final concentration: 10 μM for QPCTL/20 μM for QPCT). The plates were mixed for 30 sec at 1,000 rpm and subsequently incubated for 40 min in a humidified incubator at 24° C. […] The plates were sealed with an adhesive foil, mixed for 30 s at 1,000 rpm and stored at room temperature until preparation of the MALDI target plates. MALDI target plates were prepared as described previously. […] QPCT or QPCTL activity was monitored by calculating the ratio between product and internal standard signals followed by normalization to high (100% activity) and low (0% activity) controls. Determination of compound potencies was obtained by fitting the dose-response data to a four-parameter logistical equation.

QPCT = target: T2, QPCT (Homo sapiens, UniProt Q16769); experiment: Assay A: biochemical QPCT activity assay (MALDI-TOF MS, CD47 peptide substrate); conditions: 0.5 nM enzyme, 20 μM CD47 peptide substrate; read-out: Inhibition of QPCT: IC50
T2 construct: purchased Origine (so in the source)
T2 sequence (Q16769 29-361): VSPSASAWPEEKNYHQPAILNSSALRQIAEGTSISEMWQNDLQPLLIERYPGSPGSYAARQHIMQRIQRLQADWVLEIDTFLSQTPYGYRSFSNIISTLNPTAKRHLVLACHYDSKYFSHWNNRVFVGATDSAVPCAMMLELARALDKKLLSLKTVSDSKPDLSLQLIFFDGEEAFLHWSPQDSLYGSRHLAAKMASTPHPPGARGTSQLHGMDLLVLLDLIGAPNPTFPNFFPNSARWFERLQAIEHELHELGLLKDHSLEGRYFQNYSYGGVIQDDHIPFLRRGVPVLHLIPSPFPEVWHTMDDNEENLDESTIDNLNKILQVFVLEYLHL
Protocol: as §1

[1] = test system: SIRPα signalling induced by Raji cells; experiment: Assay B: SIRPα signalling assay using Raji cells; type: cell-based; conditions: Homo sapiens, 48 h compound incubation, Jurkat PathHunter SIRPaV1 reporter cells, read-out: Inhibition of SIRPα signalling induced by Raji cells: IC50
Protocol: (§2) Two cell types are independently used: the Raji cell line (lymphoblast-like human cell line derived from B lymphocytes from a Burkitt's lymphoma patient in 1963) and A549 cells (adenocarcinoma human alveolar basal epithelial cells).
(§3) Test compounds were dissolved in 100% DMSO and serially diluted into a white 384-well microtiter cell culture plate (PerkinElmer #60076780 in case of Raji assay; PDL-coated plates Greiner #781945 in case of A549 assay), 5000 Raji cells (ATCC #CC86) or 5000 A549 cells (ATCC #CCL-185) in Assay Complete Cell Plating reagent 30 (DiscoverX 93-0563R30B) were added per well. The assay plate was incubated for 48 h at 37° C., 95% humidity and 5% CO2. 15000 reporter cells (Jurkat PathHunter SIRPaV1, DiscoverX #93-1135C19) were added to each well, and the plate was incubated for 5 h at 37° C., 95% humidity and 5% CO2. Bioassay reagent 1 of the PathHunter Bioassay detection kit (DiscoverX 93-0001) was added to each well of the plate using a multichannel pipette followed by a 15 min incubation at room temperature. Afterwards bioassay reagent 2 was added followed by 60 min incubation at room temperature (incubation in the dark). The analysis of the data was performed using the luminescence signal generated by beta-galactosidase in the PathHunter reporter cell line. The luminescence measurement was done using a Pherastar Multi-Mode Reader. Dose-response curves & IC50 data were calculated with 4-parameter sigmoidal dose response formula.

[2] = test system: SIRPα signalling induced by A549 cells; experiment: Assay B: SIRPα signalling assay using A549 cells; type: cell-based; conditions: Homo sapiens, 48 h compound incubation, Jurkat PathHunter SIRPaV1 reporter cells, read-out: Inhibition of SIRPα signalling induced by A549 cells: IC50
Protocol: as §2, §3

[3] = Assay C: Permeability in CACO-2 cells; type: in vitro ADME; conditions: human, pH 7.2; for efflux ratio: Caco-2, permeability B−A/permeability A−B; for Papp A→B: Caco-2, apical to basolateral
Protocol: Caco-2 cells (1-2×10^5 cells/1 cm^2 area) are seeded on filter inserts (Costar transwell polycarbonate or PET filters, 0.4 μm pore size) and cultured (DMEM) for 10 to 25 days. Compounds are dissolved in appropriate solvent (like DMSO, 1-20 mM stock solutions). […] The transport solution (TL) is applied to the apical or basolateral donor side for measuring A-B or B-A permeability (3 filter replicates), respectively. Samples are collected at the start and end of experiment from the donor and at various time intervals for up to 2 hours also from the receiver side for concentration measurement by HPLC-MS/MS or scintillation counting. Sampled receiver volumes are replaced with fresh receiver solution.
Efflux ratio (ER)=permeability B−A/permeability A−B

SMILES | IC50 (QPCTL) | IC50 (QPCT) | IC50 [1] | IC50 [2] | efflux ratio [3] | Papp A→B [3]
COC(=O)c1cc(C#N)c(N2CCC(c3nncn3C)CC2)c(-c2ccc(F)nc2)c1 [Example 15] | 3 nM | 12 nM | 312 nM | 218 nM | 9.2 | 5.3 ×10⁻⁶ cm/s
Cn1cnnc1C1CCN(c2c(C#N)cc(Cl)cc2-c2ccc(F)nc2)CC1 [Example 16] | 2 nM | 8 nM | 30 nM | 18 nM | 3.3 | 23 ×10⁻⁶ cm/s
Cn1cnnc1C1CCN(c2c(C#N)cc(Cl)cc2-c2cnc3nn(C(C)(C)C)cc3c2)CC1 [Example 17] | 1 nM | 1 nM | 17 nM | 5 nM | 21.2 | 2.5 ×10⁻⁶ cm/s
Cn1cnnc1C1(F)CCN(c2c(C#N)cc(Cl)cc2-c2ccc(F)nc2)CC1 [Example 18] | 2 nM | 4 nM | 36 nM | 24 nM | 1 | 66 ×10⁻⁶ cm/s
Cn1cnnc1C1(F)CCN(c2c(C#N)cc(Cl)cc2-c2cnc3nn(C(C)(C)C)cc3c2)CC1 [Example 19] | 1 nM | 1 nM | 9 nM | 9 nM | 4.5 | 18 ×10⁻⁶ cm/s
COc1ccc(-c2ccc(F)nc2)c(N2CCC(c3nncn3C)CC2)c1C#N [Example 20] | 1 nM | 4 nM | 102 nM | 24 nM | 12.5 | 5.6 ×10⁻⁶ cm/s
Cn1cnnc1C1CCN(c2c(C#N)cc(C#N)cc2-c2ccc(F)nc2)CC1 [Example 21] | 5 nM | 25 nM | 324 nM | 280 nM | 39.1 | 1.1 ×10⁻⁶ cm/s
Cn1cnnc1C1(F)CCN(c2c(C#N)cc(C(F)(F)F)cc2-c2cnc3nc(C(F)(F)F)cn3c2)CC1 [Example 22] | 1 nM | 1 nM | 17 nM | 39 nM | 10.5 | 2.1 ×10⁻⁶ cm/s
COc1cc(-c2cc(C(F)(F)F)cc(C#N)c2N2CCC(F)(c3nncn3C)CC2)cnn1 [Example 23] | 21 nM | 14 nM | 278 nM | 145 nM | 4.3 | 13 ×10⁻⁶ cm/s
Cn1cnnc1C1(F)CCN(c2c(C#N)cc(F)cc2-c2cnc3nn(C(C)(C)C)c(Cl)c3c2)CC1 [Example 24] | 2 nM | 1 nM | 16 nM | 13 nM | 1.7 | 46 ×10⁻⁶ cm/s
Cn1cnnc1C1(F)CCN(c2c(C#N)cc(F)cc2-c2cnc3nn(C(C)(C)C)cc3c2)CC1 [Example 25] | 2 nM | 1 nM | 23 nM | 10 nM | 9.7 | 7.5 ×10⁻⁶ cm/s
Cn1cnnc1C1(F)CCN(c2c(-c3cnc4nn(C(C)(C)C)cc4c3)ccc(OCCC(C)(C)O)c2C#N)CC1 [Example 34] | 1 nM |  | 36 nM | 73 nM |  | 
Nc1ncc(C2CCN(c3ncccc3-c3ccc(F)nc3)CC2)s1 [Prior art Compound 1094, reference compound] | 111 nM | 1710 nM |  | 3060 nM |  | 
Nc1nnc(C2CCN(c3ncccc3-c3ccc(F)nc3)CC2)s1 [Prior art Compound 1095, reference compound] | 13 nM | 260 nM |  |  |  | 
Cn1cnnc1C1CCN(c2ncccc2-c2cccnc2)CC1 [SEN180, reference compound] |  | 176 nM |  |  |  | 
